Results as given in patent publication US20120171531A1, “REDOX FLOW BATTERY” (Samsung Electronics Co., Ltd., priority 2010, published 2012).

Assay: Viscosity of prepared electrolyte solution, Rheometer (AR2000)
Format: physicochemical
Details: solvent PC
Procedure: The solubilities of each metal-ligand coordination compound obtained in Preparation Examples 1 through 3 in solvents and viscosity of prepared electrolyte solutions were measured and the results are shown in Table 1. Viscosities were measured using a Rheometer (AR2000).

| SMILES | Viscosity (cps) |
| --- | --- |
| F[B-](F)(F)F.F[B-](F)(F)F.[Ni+2].c1ccc(-c2ccccn2)nc1.c1ccc(-c2ccccn2)nc1.c1ccc(-c2ccccn2)nc1 [Preparation Example 2, Ni^2+—(bpy)3 [BF4]2] | 4.9 |
| F[B-](F)(F)F.F[B-](F)(F)F.[Fe+2].c1ccc(-c2ccccn2)nc1.c1ccc(-c2ccccn2)nc1.c1ccc(-c2ccccn2)nc1 [Preparation Example 1, Fe^2+—(bpy)3 [BF4]2] | 4.8 |
